ChEMBL document CHEMBL1255450, “Detection of E119V and E119I mutations in influenza A (H3N2) viruses isolated from an immunocompromised patient: challenges in diagnosis of oseltamivir resistance” (Antimicrob Agents Chemother, 2010)

Assays:
Type in all cases: functional, organism-based, Influenza A virus (A/Texas/12/2007(H3N2))
Settings in all cases: mdck
Influenza A virus [1] = tested on: Influenza A virus
Influenza A virus [2] = tested on: Influenza A virus; remark: listed apart in the source
Influenza A virus [3] = tested on: Influenza A virus; remark: listed apart in the source
Influenza A virus [4] = tested on: Influenza A virus; remark: listed apart in the source
Influenza A virus [5] = tested on: Influenza A virus; remark: listed apart in the source
Influenza A virus [6] = tested on: Influenza A virus; remark: listed apart in the source
Influenza A virus [7] = tested on: Influenza A virus; remark: listed apart in the source

Structure (SMILES)	IC50 (Influenza A virus [1]) [nM]	IC50 (Influenza A virus [2]) [nM]	IC50 (Influenza A virus [3]; read-out: IC50) [nM]	IC50 (Influenza A virus [4]) [nM]	IC50 (Influenza A virus [5]) [nM]	IC50 (Influenza A virus [6]) [nM]	IC50 (Influenza A virus [7]) [nM]	IC50 (Influenza A virus [3]) [nM]
CC(=O)N[C@H]1[C@H]([C@H](O)[C@H](O)CO)OC(C(=O)O)=C[C@@H]1NC(=N)N [ZANAMIVIR]	1.54	12.7	3.8	18.6	–	–	–	–
CCC(CC)[C@H](NC(C)=O)[C@@H]1[C@H](O)[C@@H](C(=O)O)C[C@H]1NC(=N)N [PERAMIVIR ANHYDROUS]	0.51	0.9	33.6	214	0.43	1.47	–	–
CCOC(=O)C1=C[C@@H](OC(CC)CC)[C@H](NC(C)=O)[C@@H](N)C1 [OSELTAMIVIR]	8.06	33.2	–	431	5.49	246	9.18	154
C/C=C\[C@@H]1C[C@H](C(=O)O)N[C@H]1[C@@H](NC(C)=O)[C@](C)(CCC)OC	1.35	4.96	3	23.9	1.25	5.45	–	–
